The values that follow come from PubChem BioAssay (NCI).

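Five compound concentrations were applied to cells in 96-well plates for 48 hours; endpoints were derived by simple linear interpolation of the resulting dose-response curve. Here, GI50 denotes the concentration required for 50% inhibition of growth. TGI: total growth inhibition.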

Some test systems named below: HCT-15 colon; SF-539 CNS; UO-31 renal; ACHN renal; SN12C renal; HCT-116 colon; TK-10 renal; SF-268 CNS; SK-OV-3 ovarian; HCC-2998 colon.
What all share (test): DTP human tumour cell line panel, 48 h

Regarding `Oc1ccc(-c2nc3ccc(Cl)cc3s2)cc1`, the TGI is 31.1 µM in the test on HCT-15 colon; 34.7 µM with SF-539 CNS; 27.8 µM with UO-31 renal; over 100 µM in the test on ACHN renal; 35.7 µM in the test on SN12C renal; 29.5 µM with HCT-116 colon. Besides, the values for the TGI in the test with TK-10 renal, in the test on SF-268 CNS and with SK-OV-3 ovarian were 34.7 µM, 33.8 µM and 36.4 µM, respectively.

As for `NC(=S)N/N=C\c1nccc2ccccc12`, the TGI in the test on HCT-15 colon is over 100 µM; in the test with SF-539 CNS, 0.455 µM; in the test with UO-31 renal it was 3.63 µM; in the test with ACHN renal it was 0.317 µM; with SN12C renal, 0.779 µM; in the test on HCC-2998 colon it was over 68.4 µM. In addition, the TGI with HCT-116 colon was over 59.4 µM; in the test on TK-10 renal, 39.8 µM; in the test on SF-268 CNS it was 1.47 µM; with SK-OV-3 ovarian, 0.681 µM.

Consider `CC1=C(C)Cc2c(O)ccc(O)c2C1`, for which the TGI in the test on HCT-15 colon was 33.1 µM; in the test on SF-539 CNS, 35.1 µM; in the test on UO-31 renal it was 30.6 µM; in the test on ACHN renal it was 31.2 µM; in the test with SN12C renal, 45.8 µM; in the test on HCT-116 colon, 29.5 µM. In addition, the TGI was 36.9 µM in the test with TK-10 renal, 31.8 µM with SF-268 CNS and over 100 µM in the test on SK-OV-3 ovarian.

For `COc1ccc(-c2cc3[nH]nc(N)c3c(=O)o2)cc1`, the TGI in the test with HCT-15 colon, with SF-539 CNS, with UO-31 renal, with ACHN renal, with SN12C renal and with HCC-2998 colon was over 100 µM in each case. Also, the total growth inhibition concentration (TGI) with HCT-116 colon, in the test with TK-10 renal and with SF-268 CNS was over 100 µM each time.

As to `CC(=O)C1CC[C@@H]2[C@H](CC[C@]3(C)[C@@H](O)CC[C@@H]23)[C@H]1C(=O)O` (stereo partly specified), the TGI in the test on HCT-15 colon, with SF-539 CNS, in the test with UO-31 renal, in the test on HCC-2998 colon, with TK-10 renal and in the test with SF-268 CNS was over 100 µM in each case. The same compound returned a TGI in the test on SK-OV-3 ovarian of over 100 µM.

As for `N/C(=N\N=C\c1ccc2c(c1)OCCO2)NO`, the TGI was over 100 µM with HCT-15 colon; over 81.1 µM in the test with SF-539 CNS; over 53 µM in the test with UO-31 renal; over 100 µM in the test with SN12C renal; over 100 µM in the test on HCT-116 colon; over 49.1 µM with SF-268 CNS. In addition, in the test with SK-OV-3 ovarian, the TGI was over 100 µM.

As for `O=C1C(Cl)=C(Nc2ccc(S(=O)(=O)Nc3ccccn3)cc2)C(=O)c2ccccc21`, the TGI in the test on HCT-15 colon came out at 23.2 µM; with SF-539 CNS it was 10.3 µM; with UO-31 renal, 29 µM; in the test with ACHN renal, 31.2 µM; in the test with SN12C renal it was 30.4 µM; in the test with HCC-2998 colon, 24.8 µM. Moreover, the TGI was 18.8 µM with HCT-116 colon, 22.7 µM in the test on TK-10 renal, 29.3 µM with SF-268 CNS and 43 µM in the test on SK-OV-3 ovarian.

Consider `CC1(C)OCC=CCO1`, for which the TGI in the test on SF-539 CNS, in the test with UO-31 renal, in the test on ACHN renal, with SN12C renal, in the test with HCC-2998 colon and in the test with HCT-116 colon was over 100 µM each time. The TGI with TK-10 renal, with SF-268 CNS and with SK-OV-3 ovarian was over 100 µM each time.

Consider `COc1cc(C(O)(CC#N)c2cc3c(cc2Br)OCO3)cc(OC)c1OC` (stereo unspecified), for which the TGI with SF-539 CNS is 34.9 µM; in the test on UO-31 renal, over 100 µM; in the test with ACHN renal, over 100 µM; with SN12C renal it was over 100 µM; in the test with HCC-2998 colon, 66.1 µM; with HCT-116 colon it was over 100 µM. The TGI in the test with TK-10 renal, with SF-268 CNS and in the test with SK-OV-3 ovarian was over 100 µM throughout.

Regarding `COc1cc2c(cc1OCCCC(=O)Nc1ccc3ccc4cccc5ccc1c3c45)N=C[C@@H]1CCCN1C2=O`, the GI50 in the test on HCT-15 colon was 169 nM; in the test on SF-539 CNS it was under 10 nM; in the test with UO-31 renal, under 15.8 nM; in the test with ACHN renal, 44 nM; in the test with SN12C renal it was under 13.6 nM; in the test with HCC-2998 colon, under 10 nM. In addition, the GI50 in the test with TK-10 renal was 38.4 nM; in the test on SF-268 CNS, 270 nM; in the test on SK-OV-3 ovarian, 10.3 µM. In addition, the TGI in the test with HCT-15 colon was over 100 µM; in the test with SF-539 CNS, under 0.01 µM; with ACHN renal it was over 100 µM; in the test with SN12C renal, 0.0423 µM; in the test with HCC-2998 colon, under 0.0157 µM; in the test with TK-10 renal, 0.237 µM. Also, the TGI turned out to be 0.864 µM with SF-268 CNS and 46.9 µM in the test with SK-OV-3 ovarian.

The TGI is the concentration giving total growth inhibition. A higher TGI goes with less potent growth arrest. The term GI50 denotes the concentration giving 50% growth inhibition.
